Reference: patent US20150291517A1, “BENZENESULFONAMIDE COMPOUNDS FOR SOMATIC EMBRYOGENESIS IN PLANTS” (priority 2012, published 2015)

Key:
Assay type in all cases: in vivo, Arabidopsis thaliana
[1] = tested on: Arabidopsis seedlings; assay: Somatic embryogenesis from germinated Arabidopsis seeds in liquid medium with 1 μM 2,4-D (containers)
Excerpt: The chemical screen was based on a modified version of an Arabidopsis somatic embryogenesis protocol that uses germinated seeds as explants (see Kobayashi et al., 2010 Kobayashi T, Nagayama Y, Higashi K and Kobayashi M. (2010). Establishment of a tissue culture system for somatic embryogenesis from germinating embryos of Arabidopsis thaliana Plant Biotech. 27: 359-364). In the original protocol, seeds were germinated on solid medium for one day, then the embryos were removed from the seed coat and transferred to solid media containing 4.5 μM 2,4-D to stimulate somatic embryo development. In this example, the protocol is simplified by germinating and culturing the seeds continuously in liquid medium containing 1 μM 2,4-D. Under optimized culture conditions (circa 30 seeds in 30 ml medium in 100 ml containers) approximately 18% of Col0 seeds form somatic embryos.
Approximately 10 surface-sterilized Columbia (Col-0) seeds were added to each well. The seeds were stratified at 4° C. in the dark for two days and then grown in on a rotary shaker (100 rpm/min) on a 16 h/8 h day/night cycle at 25° C. The number of seedlings that formed somatic embryos was counted two weeks later. Candidate compounds identified in the first screen were reordered (Chembridge or Maybridge), and re-tested in a second screen under the same conditions as the primary screen, but with a larger sample number (one 96-well microtitre plate/compound). Positive compounds were analysed using ChemMine (http//bioweb.ucr.edu/ChemMineV2/), ChemSpider (http//www.chemsider.com/) and the ZINC database (http://zinc.docking.org) for analogues with a known biological function.
All subsequent experiments were performed under the conditions described above, but using 100 ml containers (Greiner) containing 30 ml of medium media using approximately 30 seeds/container. All hormones were ordered from Duchefa and Dicamba from Sigma-Aldrich.

[2] = tested on: Arabidopsis seedlings; assay: Time course of somatic embryo development, morphology and ENOD4L::GFP / LEC1::LEC1:GFP embryo markers
Experimental: The effect of the compounds on seedlings, without 2,4-D, was tested by germinating seedlings on MS10 solidified with 1% agar, and supplemented with 25 μM compound or DMSO. The ENOD4L promoter comprises a 1035 bp promoter from Brassica napus (AB098076.1), which was cloned in front of green fluorescent protein (GFP). A 3110 bp DNA fragment comprising 1292 bp upstream of the LEC1 translational start site and the entire LEC1 protein coding region was cloned in front of green fluorescent protein (GFP). These vectors were transformed to Arabidopsis ecotype Columbia (Col-0).
Control and C#3-treated cultures were examined at different time points in their development to determine the effect of C#3 on the course of somatic embryo development. Differences between the control and C#3-treated cultures were visible at about four days of culture. The epidermal and cortex cells of the root elongation zone and hypocotyl in the control seedlings increased in size, but not in the C#3-treated seedlings. On the sixth day of culture the differences between the two cultures was more pronounced. […] Callus was present on the tips of the cotyledons in circa 10% of the control seedlings, and up to 70% of the C#3 treated seedlings. This callus comprised loose, large cells on the outside, and smaller, denser cells on the on inside.
The timing and location of somatic embryo formation in control and compound-treated cultures was examined in more detail using two early embryo expressed marker genes, ENOD4-like (ENOD4L::GFP), and LEAFY COTYLEDON1 (LEC1::LEC1:GFP). Expression of ENOD4L::GFP and LEC1:GFP in zygotic embryos was observed from the zygote- and two-celled embryo proper stage onward, respectively. […] The GFP-positive sectors increased in size over the next few days, and on the sixth day of culture, GFP-positive globular embryos could be distinguished. The only difference between the C#3-treated and control cultures with respect to embryo marker expression was the number of seedlings displaying GFP fluorescence, which was higher in the C#3-treated cultures.

[3] = tested on: germinating seeds; assay: Developmental competence: C#3 added at different time points after start of culture
Experimental: The competence of an explant for in vitro regeneration is determined for a large part by its developmental state. The developmental competence of germinating seedlings to respond to C#3 was examined by adding C#3 at different time points after the start of culture. Seeds were stratified at 4° C. in media containing 1 μM 2,4-D. 25 μM C#3 or the equivalent volume of DMSO (control) was added to the media at different time points after the cultures were transferred to 25° C. The number of seedlings with somatic embryos was determined after two weeks of culture.

[4] = tested on: Arabidopsis seedlings; assay: Somatic embryo formation at 0 to 2 μM 2,4-D with or without C#3
Excerpt: 2,4-D is widely used to induce somatic embryogenesis from plant explant. In Arabidopsis immature zygotic embryos occasionally form somatic embryos when grown in basal medium, while germinating embryos or other vegetative tissues are unable to form embryos. […] Compound #3 therefore potentiates the effect of auxin 2,4-D. As shown in the micrograph in FIG. 7B, at the lowest effective concentration of C#3, areas of dense, light green embryogenic tissue (arrows) were formed, rather than histodifferentiated, bipolar somatic embryos.

[5] = tested on: Arabidopsis seedlings; assay: NAA induced somatic embryogenesis with or without C#3
Experimental: The ability of C#3 to enhance embryogenesis in the presence of other auxins was tested; namely the synthetic auxin naphthalene-1-acetic acid (NAA). […] C#3 therefore enhances the developmental responses that are activated by auxin treatment. Compound C#3 is therefore able to potentiate the effect of other auxins.

[6] = 25 μM compound, 1 μM 2,4-D, FIG. 1

O=C(O)COc1ccc(Cl)cc1Cl [2,4-D, 2,4 dichlorophenoxyacetic acid, reference compound]
seeds forming somatic embryos ([1]; 1 μM 2,4-D alone, Col0, circa 30 seeds in 30 ml medium): approximately 18%

Cc1ccccc1N(C)S(=O)(=O)c1ccc(Cl)cc1 [C#3, 4-chloro-N-methyl-N-(2-methylphenyl)benzenesulfonamide]
level of SE, percentage of seedlings with somatic embryos, compared to control of 1 μM 2,4-D alone [1, 6]: significantly increases the level of SE
potency as inducer of SE [1, 6]: particularly potent inducers
seedlings with somatic embryo development ([1]; 10 to 50 μM C#3, 1 μM 2,4-D, control circa 20%): approximately 70%
number of somatic embryo-producing seedlings in different Arabidopsis ecotypes ([1]; ecotypes other than Col0): enhanced the number of somatic embryo-producing seedlings
rank of percentage of seedlings with somatic embryos among screened compounds ([1]; in presence of 2,4-D): induced the highest percentage of seedlings with somatic embryos
level of SE with increasing concentrations of compound ([1]; none to 50 μM, fixed 1 μM 2,4-D, FIG. 5): increases the level of SE
number of seedlings displaying GFP fluorescence versus control ([2]; embryo marker expression): higher
first detection of ENOD4L::GFP and LEC1:GFP marker expression ([2]; region of the shoot meristem): starting from day four of culture
callus formation in root/hypocotyl region ([2]; sixth day of culture): formed a large, connected mass of vascular-derived callus
cell loosening and detachment in hypocotyl and root ([2]; sixth day of culture): to a lesser extent than the control
seedlings with callus on the tips of the cotyledons ([2]; sixth day of culture, control circa 10%): up to 70%
number of embryogenic seedlings compared to control cultures ([2]; tenth day of culture): much higher
time of addition giving best response ([3]; 25 μM C#3, 1 μM 2,4-D, scored after two weeks, FIG. 6): within the first two days of culture
enhancement of somatic embryogenesis on late addition ([3]; 25 μM C#3 added after four days of culture): reached control levels
somatic embryo formation in the absence of 2,4-D ([4]; 25 μM C#3, no 2,4-D, FIG. 7A): not able to induce somatic embryo formation
somatic embryo formation at all tested 2,4-D concentrations ([4]; 25 μM C#3, up to 2 μM 2,4-D): did enhance somatic embryo formation
effect on NAA induced somatic embryogenesis ([5]; 25 μM C#3 with 10 μM NAA): enhanced

O=C(O)Cc1cccc2ccccc12 [NAA, naphthalene-1-acetic acid, reference compound]
frequency of somatic embryogenesis with NAA alone ([5]; 10 μM NAA, FIG. 8): induced a low frequency of somatic embryogenesis
